Legend:
[1] = Cytotoxicity against HUVEC cells assessed as cell viability incubated for 24 hrs by MTT assay; assay type: toxicity, cell-based; conditions: human, read-out: Activity
HUVEC = test: Anti-angiogenesis activity against HUVEC cells assessed as inhibition of tube formation at 2.5 to 20 uM measured after 3 hrs by fluorescence microscopic analysis; assay type: functional, cell-based; conditions: Homo sapiens, dose 2.5-20 µM, DDE = dose-dependent effect

## CCCC[C@@H](O)[C@H](O)/C=C/C=C/[C@@H]1CC[C@@H](O)[C@H](C)N1
[1]
  viability at 24 h: ≥ 90%
HUVEC
  Activity: Dde

Source: ChEMBL document CHEMBL5143592, “Angiogenesis-Inhibitory Piperidine Alkaloids from the Leaves of Microcos paniculata” (J Nat Prod, 2022)
